Results: patent US10317393B2, “Alkynyl sugar analogs for labeling and visualization of glycoconjugates in cells” (Academia Sinica, priority 2007, dated 2019)

What was measured:
Format in all cases: cell-based, human
Jurkat cells [1] = assay: Flow cytometry of cell surface labeling after click with biotin azide probe 6 and fluorescein-conjugated streptavidin
Experimental: In another exemplary implementation, a method for labeling fucosylated glycoconjugates at the cell surface is disclosed. In one aspect, Jurkat cells are grown in the presence of derivatized alkynyl Fuc 1. After treatment, cells are subjected to CuAAC (click chemistry) to couple biotinylated azido probe 6 with any alkynyl Fuc-bearing glycoconjugates, and stained with fluorescein-conjugated streptavidin.
Labeling alkynyl Fuc-bearing cell surface glycoconjugates is illustrated in FIGS. 1A, 1B, 1C and 1D. FIGS. 1A, 1B, 1C and 1D show analysis of cells tagged with Fuc analogs analyzed by monitoring fluorescence intensity with flow cytometry after labeling with a biotin azide probe 6 and staining cells with fluorescein-conjugated streptavidin. […] Without being bound by theory, incorporation of the derivatized Fuc analogs into fucosylated glycoconjugates likely occurs via the Fuc salvage pathway.
It is now disclosed in one exemplary implementation of the disclosure that treating cells with derivatized alkynyl ManNAc 4 results in derivatized alkyne-bearing sialyl glycoconjugates. In one aspect of the method, cells are treated with 4 at various concentrations for one to 3 days. Modified sugar analogs and probes used in this disclosure are shown in Scheme 1. Tagging of the cell surface glycoconjugates by derivatized alkynyl ManNAc is illustrated in FIGS. 2A, 2B, 2C and 2D. FIGS. 2A, 2B, 2C and 2D show analysis of cells labeled with ManNAc analogs analyzed by monitoring fluorescence intensity with flow cytometry after clicking on the biotin azide probe 6 and staining cells with fluorescein-conjugated streptavidin. […] Compared with the MFI of controls, there was significant labeling on cells treated with derivatized alkynyl ManNAc 4, even at concentrations as low as 3 micromolar (15-fold increase). […] The optimal concentration of 4 for tagging sialyl glycoconjugates falls between 25 and 50 micromolar.
(§1) Jurkat cells were cultivated (2×10^6/10 ml) in RPMI medium 1640 supplemented with 10% FCS and various concentrations of peracetylated alkynyl sugars 1, 2, or 4 or native sugars 3 or 5, for 1-3 days at 37° C. Cells were then harvested, washed with 0.1% FCS/PBS, and resuspended (10^6 cells) in 100 microliters of click reaction solution (0.1 mM biotin probe 6 or fluorogenic probe 7/0.1 mM Tris-thiazoleamine catalyst/0.1 mM CuSO4/0.5 mM sodium ascorbate, in PBS). The reaction was incubated at room temperature for 30 min, and then the cells were washed twice with 0.1% FCS/PBS. Cells treated with biotin probe 6 were subsequently stained with fluorescein-conjugated streptavidin (0.5 microgram per sample in 50 microliters of 1% FCS/PBS) for 30 min at 4° C., and washed three times with 1% FCS/PBS. Data were acquired by BD LSR II with FACSDiva software, and were analyzed by CellQuestPro software (BD Biosciences). Detection of fluorescent adduct with probe 7 was monitored with a 408 nm laser and a 440/40 bandpass filter for excitation and emission, respectively.

Jurkat cells [2] = assay: Cell growth analysis after treatment with sugar analogs (cell numbers counted)
Experimental: FIGS. 1A, 1B, 1C and 1D show analysis of cells labeled with Fuc analogs. […] Jurkat cells were grown in the presence of 200 micromolar each Fuc analog for 3 days before cell numbers were counted. The data represent the percentage of treated cells vs. untreated cells (n=4).
It is also disclosed how treatment with exogenous Fuc analog affects cell growth rate. […] In contrast, the addition of 200 micromolar azido Fuc 2 inhibits cell growth considerably, by 65% when compared with the untreated cells. […] Such toxicity may lead to global change in expression, therefore a nontoxic probe is preferable for accurate probing of glycoconjugate expression.
as §1

Jurkat cells [3] = assay: Flow cytometry of cell surface labeling with fluorogenic coumarin probe 7; conditions: 200 micromolar Fuc analogs or 25 micromolar ManNAc analogs, 3 days
Excerpt: FIGS. 3A and 3B show tagging of cell surface glycans by derivatized alkynyl sugar analogs and subsequent labeling with probe 3-azido-7-hydroxycoumarin 7. Shown is flow cytometry analysis of Jurkat cells tagged with 200 micromolar derivatized alkynyl Fuc 1 shown in FIG. 3A or 25 micromolar alkynyl-derivatized ManNAc 4 shown in FIG. 3B for 3 days. The fluorescence intensity was detected after labeling with a coumarin probe 7. Filled histogram, cells treated with control sugar analog 3 or 5; open histogram, cell treated with alkynyl-derivatized sugar 1 or 4.
Recently, another click-activated azido-derivatized fluorescent probe, based on coumarin, was reported in the literature. In one aspect of the disclosure, the fluorogenic probe, 3-azido-7-hydroxycoumarin 7, is used as the coupling partner for alkynyl tags on labeled glycoconjugates.
Jurkat cells were cultivated (2×10^6/10 ml) in RPMI medium 1640 supplemented with 10% FCS and various concentrations of peracetylated alkynyl sugars 1, 2, or 4 or native sugars 3 or 5, for 1-3 days at 37° C. […] Data were acquired by BD LSR II with FACSDiva software, and were analyzed by CellQuestPro software (BD Biosciences). Detection of fluorescent adduct with probe 7 was monitored with a 408 nm laser and a 440/40 bandpass filter for excitation and emission, respectively.

Hep3B cells = assay: Confocal microscopy of fluorescently labeled glycoconjugates; conditions: 200 micromolar Fuc or 25 micromolar ManNAc analogs, 3 days; probe 6 or 7
Experimental: (§2) One exemplary implementation of the disclosure provides a method to visualize the localization of glycoconjugates using alkynyl sugar tagging. To visualize the localization of glycoconjugates tagged with alkynyl sugars, adherent cells are grown on slides in the presence or absence of derivatized alkynyl sugars. After a 3-day-incubation, cells attached to the slides are fixed, permeabilized, and labeled with either biotin probe 6 or fluorogenic probe 7 for fluorescent signal analysis with confocal microscopy (FIGS. 4, 5, 10A, 10B and 11). For comparison, samples are also stained with wheat germ agglutinin (WGA, a Golgi marker) and Hoechst 33342 (marker for cell nuclei).
(§3) Human hepatocellular carcinoma cells (Hep3B) or breast adenocarcinoma cells (MCF-7) were seeded onto six-well plates (3×10^5/2 ml per well) containing glass coverslips, and were cultivated in 10% FCS/DMEM or 10% FCS/RPMI medium 1640. […]

MCF-7 cells = assay: as above; conditions: 200 micromolar Fuc or 25 micromolar ManNAc analogs, 3 days; probe 6 or 7
Experimental: as §2, §3

## 1,2,3,4-tetraacetyl alkynyl fucose [alkynyl Fuc 1]
Jurkat cells [1]; 200 micromolar
  saturation of incorporation, incubation time: one
Jurkat cells [1]; 200 micromolar, biotin probe 6/fluorescein-streptavidin
  mean fluorescence intensity (MFI) compared with Fuc treated cells: 3 fold
Jurkat cells [1]; 3 days
  dose dependency of glycan tagging: dose dependent increase of fluorescence signal
Jurkat cells [1]; biotin probe 6/fluorescein-streptavidin
  fluorescence intensity / cell surface signal compared with control sugar-treated cells: increased fluorescence intensity
Jurkat cells [2]; 200 micromolar, 3 days
  number of cells after 3 days versus cells grown without exogenous Fuc: similar
Jurkat cells [2]; at levels required for efficient labeling
  toxicity to cells (summary statement): much less toxic
Jurkat cells [3]
  fluorescent labeling after reacting with 3-azido-7-hydroxycoumarin probe: significant fluorescent labeling
Hep3B cells
  labeling signal by confocal microscopy: strong punctate-labeling signal
MCF-7 cells
  labeling signal by confocal microscopy: strong punctate-labeling signal
